According to US8597264B2, “Apparatuses, methods, and compositions for the treatment and prophylaxis of chronic wounds” (KCI Licensing, Inc., priority 2011, dated 2013):

How the values were obtained:
[1] = target: T1, MMP-9 (Homo sapiens, UniProt P14780); assay: MMP-9 Colorimetric Drug Discovery Kit (Biomol): MMP activity reduction by dressings; type: biochemical; settings: compared to control samples with no MMP-9 inhibitor activity
T1 construct: purchased Biomol
Text: A National Diagnostics Hydrogen Peroxide Assay Kit was used to evaluate the antioxidant properties of foam pads and the formulated coated foam pads containing alpha-lipoic acid. Foam pads coated only with gelatin were used as controls. FIG. 2 is a graph showing the percentage of hydrogen peroxide reduction due to reaction with alpha-lipoic acid. An MMP-9 Colorimetric Drug Discovery Kit (Biomol) was used to evaluate the MMP inhibiting/inactivating ability of the formulated foam pads containing alpha-lipoic acid/gelatin (ALA) and gelatin alone (GF GEL). The controls were uncoated foam pads and known potent MMP inactivating drug, NNGH (C13H20N2O5S, available from Enzo® Life Sciences). […] FIG. 4 is a graph showing the release of alpha-lipoic acid from the coating on the foam pads. The coating delivers approximately 70% of the total alpha-lipoic acid within the first day, while the remaining alpha-lipoic acid is released during the next 2-3 days.
Coated polyurethane foam (GranuFoam®) scaffolds described above in Examples 1-2 were further assayed for their ability to reduce MMP activity as compared to non-coated collagen based scaffold such as the Biostep™ and Promogran™ products.

[2] = Release of alpha-lipoic acid from the coating on foam pads; type: physicochemical; settings: coating on foam pads (FIG. 4)
Text: Polyurethane open-cell reticulated foam pads were selected as the scaffold and were immersed in a solution containing 1.5 wt % of alpha-lipoic acid and 4.5 wt % 225-bloom beef gelatin (and, where applicable, 0.3% EDTA). Gelatin was used as a biocompatible binding agent with good oxygen barrier and sustained release properties for alpha-lipoic acid as well as for its ability to act as a sacrificial substrate for surrounding gelatinases. Alpha-lipoic acid was pre-dissolved in ethanol and then mixed into the final solution. The foam pads were immersed for a sufficient amount of time to coat the pathways formed within the open-cell reticulated foam as described above with respect to the scaffold. After immersion, the foam pads were withdrawn, compressed to remove excess solution, and dried to a constant weight. In some cases, sodium benzoate was added to the formulation as a preservative. Dried foams comprised, by weight, 2% alpha-lipoic acid, 6% gelatin and, where applicable, 0.4% EDTA.
A National Diagnostics Hydrogen Peroxide Assay Kit was used to evaluate the antioxidant properties of foam pads and the formulated coated foam pads containing alpha-lipoic acid. Foam pads coated only with gelatin were used as controls. FIG. 2 is a graph showing the percentage of hydrogen peroxide reduction due to reaction with alpha-lipoic acid. […]

T1 sequence (P14780 107-444 limits assumed): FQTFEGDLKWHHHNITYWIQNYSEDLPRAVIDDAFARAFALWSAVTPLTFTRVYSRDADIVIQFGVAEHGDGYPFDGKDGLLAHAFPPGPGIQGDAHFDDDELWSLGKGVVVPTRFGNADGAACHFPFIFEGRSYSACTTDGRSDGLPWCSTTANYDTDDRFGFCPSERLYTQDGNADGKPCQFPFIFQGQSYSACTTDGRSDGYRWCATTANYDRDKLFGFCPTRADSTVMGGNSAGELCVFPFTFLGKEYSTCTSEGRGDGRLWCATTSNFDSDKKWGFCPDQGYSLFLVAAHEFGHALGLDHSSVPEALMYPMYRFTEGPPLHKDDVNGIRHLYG

| time over which the remaining alpha-lipoic acid is released ([2]; after the first day) [days] | share of the total alpha-lipoic acid delivered by the coating ([2]; within the first day) | Compound | % MMP-9 activity reduction ([1]; Table 1 experiment) [%] | % MMP-9 activity reduction ([1]; Table 2 experiment) [%] |
| --- | --- | --- | --- | --- |
| – | – | COc1ccc(S(=O)(=O)N(CC(=O)NO)CC(C)C)cc1 [NNGH] | 90.2 | 103.8 |
| 2 to 3 | approximately 70% | O=C(O)CCCCC1CCSS1 (stereo not drawn) [alpha-lipoic acid] | – | – |
